Assay results from patent publication US7605137B2, “Combination therapy comprising cloretazine” (priority 2004, dated 2009).
“Also recorded” adds a separate entry of the source. Where two headings read alike, the source gives them in different places.

Legend:
[1] = cited from earlier work
B16F10 melanoma = conditions: weekly IP, 10-60 mg/kg; cited from earlier work
[2] = cited from earlier work; remark: listed apart in the source
[3] = cited from earlier work; remark: listed apart in the source
L1210 leukemia [4] = assay: In vivo antitumor activity of VNP40101M and fludarabine on ip L1210 leukemia (3×10^6 cells), survival; set-up: species or system CD2F1 mice; conditions: 3×10^6 L1210 cells ip; for Long-term Survivors (%): survival more than 60 days
Experimental: Eighty Female Balb/c×DBA/2 (CD2F1) mice are inoculated intraperitoneally (ip) on day 0 with 3×10^6 L1210 cells in 0.2 mL phosphate-buffered-saline (PBS). The mice are randomly divided into 6 groups; each group consists of 10 mice. The animals are untreated or treated with a single bolus dose of VNP40101M at 5, or 10 mg/kg, ip, on day 1 with or without fludarabine (70 mg/kg, ip) on multiple days between days 1 to 9. During the experiments, mice are observed daily for survival. It is determined that mice that survive for more than 60 days after inoculation of L1210 cells might be regarded as long-term survivors. Kaplan-Meier plots are generated, and survival time of animals is analyzed using student T-test. Significance is defined as P<0.05.

[5] = tested on: murine M109 lung carcinoma; conditions: cited from earlier work
L1210 leukemia [6] = assay: In vitro cytotoxicity of VNP40101M and AraC, cell viability assay (mitochondrial oxidoreductase activity); type: cell-based, murine; conditions: AraC and VNP40101M 0.75-6 uM
Experimental: The cytotoxicity of the combination of VNP40101M and Arac on L1210 leukemia was examined using a cell viability assay. Cells were exposed to VNP40101M, alone or in combination with various concentrations of AraC. After 72 hours, the remaining viable cells were quantified by measuring mitochondrial oxidoreductase activity. Concentrations of AraC and VNP40101M used were between 0.75 and 6 uM. Dose-effect analyses (combination index) showing combination effects of VNP40101M and AraC were analyzed.

[7] = tested on: advanced hematologic malignancies; conditions: cited from earlier work
L1210 leukemia [8] = assay: In vivo antitumor activity of VNP40101M and AraC on ip L1210 leukemia (1×10^6 cells), survival; set-up: species or system CD2F1 mice; conditions: 1×10^6 L1210 cells ip; for Long-term Survivors (%): survival more than 60 days
Experimental: Eighty Female Balb/c×DBA/2 (CD2F1) mice were inoculated intraperitoneally (ip) on day 0 with 1×10^6 L1210 cells in 0.2 mL phosphate-buffered-saline (PBS). The mice were randomly divided into 6 groups; each group consisted of 10 mice. The animals were untreated or treated with a single bolus dose of VNP40101M at 5, or 10 mg/kg, ip, on day 1 with or without AraC (50 mg/kg, ip) on days 1, 3, 5, 7, and 9. Daring the experiments, mice were observed daily for survival. It was determined that mice that survive for more than 60 days after inoculation of L1210 cells might be regarded as long-term survivors. Kaplan-Meier plots were generated, and survival time of animals was analyzed using student T-test. Significance was defined as P<0.05.

[9] = tested on: intra-cranially implanted L1210 leukemia; conditions: cited from earlier work
[10] = tested on: human HTB177 lung (H460) carcinoma; conditions: weekly IP, 10-60 mg/kg; cited from earlier work
[11] = tested on: L1210 leukemia (10^6 tumor cells) resistant to BCNU, cyclophosphamide, or melphalan; conditions: cited from earlier work
[12] = cited from earlier work; remark: listed apart in the source
human U251 glioma = conditions: 10 mg/kg q2d×11 or 20 mg/kg q4d×6 IP; tumors staged to ~300 mg; cited from earlier work
[13] = tested on: human WiDr colon carcinoma; conditions: weekly IP, 10-60 mg/kg; cited from earlier work
[14] = VNP40101M 5 mg/kg ip single bolus day 1
[15] = VNP40101M 10 mg/kg ip single bolus day 1
[16] = single dose 80-100 mg/kg IP, tumor-bearing mice

Which Dose-limiting non-hematologic toxicities ([1]; 3-305 mg/m^2) does the source give for `CNC(=O)N(N(CCCl)S(C)(=O)=O)S(C)(=O)=O` [VNP40101M, 1,2-Bis(methylsulfonyl)-1-(2-chloroethyl)-2-(methylaminocarbonyl) hydrazine] here?
Its Dose-limiting non-hematologic toxicities is “No dose-limiting non-hematologic toxicities were observed”.

What about the “Maximum tolerated dose (MTD)” value ([1]; IV infusion over 15-30 minutes every 4-6 weeks) of the same compound?
Its value is 305 mg/m^2.

What about the Platelet nadir ([1]; MTD 305 mg/m^2) of the same compound?
Its Platelet nadir is 25 to 33 days.

What about the “Patients with grade 3 thrombocytopenia” value ([1]; among seven patients treated at the MTD (305 mg/m^2)) of the same compound?
Its value is “six”.

What about the “Recovery of hematologic toxicities to ≦ grade 1” value ([1]; human, in vivo) of the same compound?
Its value is 32-45 days.

What about the “Patients with ≧grade 2 granulocytopenia” value ([1]; patients treated at the MTD (305 mg/m^2)) of the same compound?
Its value is “Five”.

What about the Tumor growth (B16F10 melanoma) of the same compound?
Its Tumor growth is “significant delays in tumor growth”.

And the “Clinical signs or symptoms” value ([2]; 3 mg/kg (18 mg/m^2) IV d×5, day 15)?
Its value is “no clinical signs or symptoms”.

What about the “Rats with lung findings” value ([2]; 3 mg/kg IV d×5, day 29) of the same compound?
The value was 2/10.

And the “Microscopic findings (lung)” value ([2]; 3 mg/kg IV d×5)?
Its value is “alveolar edema, congestion, alveolar histiocytosis, and vascular thrombi”.

What about the Gross necropsy findings ([2]; 10 mg/kg (60 mg/m^2) d×5, day 15) of the same compound?
The Gross necropsy findings was “few significant gross necropsy findings”.

What about the “Effects on serum chemistries” value ([2]; 10 mg/kg dose group, day 29) of the same compound?
The value was “decreases in total protein and albumin”.

What about the “Animals with thoracic cavity fluid” value ([2]; 10 mg/kg d×5, sacrificed on day 29) of the same compound?
The value was “approximately 50 % of animals”.

What about the “Animals with thoracic cavity fluid” value ([2]; 10 mg/kg d×5, sacrificed on days 30/31) of the same compound?
The value was 6/6.

What about the Myelosuppression ([2]; doses as high as 10 mg/kg d×5) of the same compound?
Its Myelosuppression is “not observed”.

What about the “Clinical signs and symptoms” value ([3]; 1 mg/kg (20 mg/m^2) IV d×5) of the same compound?
Its value is “minimal clinical signs and symptoms”.

And the Leukopenia ([3]; 1 mg/kg IV d×5, recovered to baseline by day 15)?
The Leukopenia was “mild leukopenia on day 8”.

What about the Leukopenia ([3]; 3 mg/kg IV d×5) of the same compound?
Its Leukopenia is “marked leukopenia by day 8”.

And the Clinical signs ([3]; 3 mg/kg IV d×5, sacrifice on day 8)?
Its Clinical signs is “marked clinical signs”.

And the Tolerability ([3]; single IV doses 1 and 3 mg/kg, at least 21 days of observation)?
Its Tolerability is “well-tolerated”.

And the Clinical signs ([3]; single IV doses 10 and 30 mg/kg (200 and 600 mg/m^2))?
The Clinical signs was “marked clinical signs”.

And the “Long-term Survivors (%)” value (L1210 leukemia [4]; [14])?
Its value is 0%.

What about the “Long-term Survivors (%)” value (L1210 leukemia [4]; [15]) of the same compound?
The value was 40%.

What about the Tumor growth ([5]; 10 mg/kg q2d×10 or 20 mg/kg q4d×5 IP, tumors staged to ~150 mg) of the same compound?
The Tumor growth was “delayed tumor growth”.

What about the “Delay of time to reach 1 gram” value ([5]; 20 mg/kg q4d×5 IP) of the same compound?
Its value is 14 days.

And the “Combination effect with AraC on L1210 leukemia” value (L1210 leukemia [6])?
Its value is “worked synergistically with AraC”.

What about the Clinical response ([7]; 220 mg/m^2, heavily pre-treated patient with AML) of the same compound?
Its Clinical response is “substantial clearing of marrow blasts”.

And the Clinical response ([7]; 300 mg/m^2 single course, one previously untreated patient with high-risk myelodysplasia)?
The Clinical response was “complete response by day 28”.

And the Clinical response ([7]; 532 mg/M^2, patient with AML, by day 28)?
Its Clinical response is “reduction in marrow blasts”.

What about the “Duration of prolonged marrow aplasia” value ([7]; 708 mg/m^2, one of seven patients) of the same compound?
Its value is over 80 days.

And the Peripheral blood blasts ([7]; all dose levels (220-708 mg/m^2))?
Its Peripheral blood blasts is “reduced peripheral blood blasts at least transiently in most patients”.

And the Infusion-related reaction ([7]; doses ≧400 mg/m2)?
Its Infusion-related reaction is “transient infusion-related syndrome”.

What about the Dose-limiting non-hematologic toxicities ([7]; through the dose of 708 mg/m^2) of the same compound?
The Dose-limiting non-hematologic toxicities was “no dose-limiting non-hematologic toxicities were observed”.

What about the “Long-term Survivors (%)” value (L1210 leukemia [8]; [14]) of the same compound?
The value was 50%.

And the “Long-term Survivors (%)” value (L1210 leukemia [8]; [15])?
The value was 90%.

And the “Anti-tumor activity against intra-cranially implanted L1210 leukemia” value ([9]; IP administration)?
The value was “Substantial anti-tumor activity”.

And the “Crossing the blood brain barrier” value ([9]; inferred from activity against intra-cranially implanted leukemia)?
Its value is “good penetration through the blood-brain barrier; also recorded: effective in crossing the blood brain barrier”.

And the “Cell kill of leukemia cells implanted intracranially” value ([9]; leukemia cells implanted intracranially)?
The value was over 6.54 log cell kill.

What about the Tumor growth [10] of the same compound?
The Tumor growth was “significant delays in tumor growth”.

And the “Increase in life span compared to control mice” value ([11]; 6 mg/kg/d IP daily for 6 days (total dose 36 mg/kg))?
The value was 333%.

And the Cure ([11]; 12-18 mg/kg/d IP daily for 6 days (total doses 72-108 mg/kg))?
Its Cure is 100 % of animals.

And the Delayed toxic deaths ([11]; d×6 schedule, total doses up to 108 mg/kg)?
The Delayed toxic deaths was “not observed”.

What about the “Myelosuppression at doses producing long-term survival” value ([11]; non-tumor-bearing mice) of the same compound?
The value was “only modestly myelosuppressive”.

And the “Time of toxic deaths after treatment” value [11, 16]?
Its value is over 50 days.

And the “Toxicity of higher single doses” value [11, 16]?
The value was “signs of a wasting condition and death in some animals; also recorded: signs of a wasting condition and deaths”.

What about the “Cure (survival ≧60 days)” value ([11]; single dose IP 24 hours after tumor inoculation, 20-60 mg/kg (60-180 mg/m^2)) of the same compound?
Its value is 100 % of mice.

And the “White blood cell count” value ([12]; 60 mg/kg, by day 4)?
The value was “approximately 25 % of baseline”.

And the “White blood cell count” value ([12]; 80 mg/kg, by day 4)?
Its value is ~15 % of baseline.

What about the WBC recovery ([12]; 60-80 mg/kg) of the same compound?
The WBC recovery was “full recovery by day 21”.

What about the “White blood cell count” value ([12]; single IP dose 40 mg/kg (120 mg/m^2)) of the same compound?
Its value is 50 % of baseline.

What about the Tumor response (human U251 glioma) of the same compound?
The Tumor response was “complete regressions”.

And the Tumor growth [13]?
The Tumor growth was “significant delays in tumor growth”.

Which “Long-term Survivors (%)” value (L1210 leukemia [8]; AraC 50 mg/kg ip days 1, 3, 5, 7, 9) does the source give for `Nc1ccn([C@@H]2O[C@H](CO)[C@@H](O)[C@@H]2O)c(=O)n1` [AraC, Cytarabine, reference compound] here?
The value was 0%.

What about the “Time to death of all animals” value (L1210 leukemia [8]; AraC treatment control, 50 mg/kg ip days 1, 3, 5, 7, 9) of the same compound?
Its value is at most 30 days.

For `Nc1nc(F)nc2c1ncn2[C@@H]1O[C@H](CO)[C@@H](O)[C@@H]1O` [Fluda, Fludarabine, reference compound], which “Long-term Survivors (%)” value (L1210 leukemia [4]; fludarabine 70 mg/kg ip multiple days between days 1 to 9) is on record?
Its value is 0%.

And the “Time to death of all animals” value (L1210 leukemia [4]; fludarabine treatment control, 70 mg/kg ip)?
The value was at most 30 days.
